# System: CSF-1-derived human macrophages
# Experiment: IL-4-induced M2 polarization of CSF-1-derived macrophages (flow cytometry CD200R/CD206, CD200R/CD163)
# Assay type: cell-based
# Protocol: FIG. 6. […] Human monocytes were differentiated during 7 days with 100 ng/mL CSF-1. […] The results are expressed as MFI and represent the mean of 3 independent experiments performed in duplicate. **P<0.01 according to a paired student t test (B) Macrophage polarization was evaluated by 3-color flow cytometric analysis. The percentage indicates cells that express both CD206/CD200R or CD163/CD200R. The results represent the mean±SD of 3 independent experiments performed in duplicate. **P<0.01, ***P<0.001 according to a paired student t test. Human monocytes were differentiated during 5 days with 100 ng/mL CSF-1 and then polarized into M2-macrophages (IL-4) for 2 days. […] The results are expressed as percentage of CD200R/CD206 or CD200R/CD163 double positive cells and represent the mean±SD of 3 independent experiments performed in duplicate.
# To analyze the macrophagic differentiation of monocytes, the cells were washed with ice-cold phosphate buffered saline (PBS, Life Technologies, 14190169), incubated at 4° C. for 10 min in PBS/bovine serum albumin (BSA 0.5%, Dutscher, 871002) with anti-CD16, anti-CD71 and anti-CD163 or isotype controls (Miltenyi and BD Biosciences, catalog numbers were 130-113-396, 130-097-628 and 551374). Finally, the cells were washed and fixed in 2% paraformaldehyde (EMS, 15710). To perform macrophage polarization, purified monocytes were plated at 0.3×10^6 per mL in RPMI 1640 medium with glutamax-I supplemented with 10% (vol/vol) fetal bovine serum plus CSF-1 for 5+2 days to differentiate into M0 macrophages. 20 ng/mL IL-4 (Miltenyi, 130-094-117) was added after 5 days of differentiation for two days to polarize into M2-macrophages. […] Fluorescence was measured with a MACSQuant® Analyzer (Miltenyi, Paris, France). […] Fluorescence was measured with a MACSQuant® Analyzer (Miltenyi, Paris, France). […] Fluorescence, that indicate the internalization of particles, was measured with a MACSQuant® Analyzers (Miltenyi, France). Trypan blue solution was used to quench the fluorescence from particles that were not internalized. […]
smiles,measurement,setting,value
"C[C@H](NC(=O)C(=O)Nc1ccccc1C(C)(C)C)C(=O)N[C@@H](CC(=O)O)C(=O)COc1c(F)c(F)cc(F)c1F [Emricasan, (S)-3-((S)-2-(2-((2-(tert-Butyl)phenyl)amino)-2-oxoacetamido)propanamido)-4-oxo-5-(2,3,5,6-tetrafluorophenoxy)pentanoic acid]",M1-like markers,5 days CSF-1 then IL-4 2 days,induced M1-like markers
same,M2-like polarization of M0 macrophages induced by IL4,5 days CSF-1 then IL-4 2 days,dampened
same,generation of CD200R+/CD206+ and CD200R+/CD163+ double-positive cells,"IL4-polarized macrophages, Emricasan added 16 h before IL-4",inhibited

# Source: patent US20220354811A1, “METHODS AND COMPOSITIONS FOR MODULATING MACROPHAGES POLARIZATION” (INSERM (INSTITUT NATIONAL DE LA SANTÉ ET DE LA RECHERCHE …, priority 2019, published 2022)
